Reference: patent US4127720A, “Pyrimido[2,1-a]isoquinoline derivatives having antiallergy activity” (priority 1977, dated 1978)
Like-named read-outs stand apart in the source and are kept apart here.

Legend:
[1] = system: release of mediators, e.g. histamine and SRS-A; settings: administered to asthmatic patients prior to inhalation of specific antigens; cited from earlier work
[2] = system: reagin-mediated rat Passive Cutaneous Anaphylaxis (PCA); experiment: Reagin-mediated rat Passive Cutaneous Anaphylaxis (PCA) screening test; assay type: in vivo, Sprague-Dawley rats
Description: The reagin-mediated rat Passive Cutaneous Anaphylaxis (PCA) screening test used to evaluate the present compounds is generally regarded as one of the best animal models for use in predicting the antiallergy activity of test compounds in man. Briefly, the method consists of passive sensitization of skin sites on the test animals with reaginic antibodies followed after 24 hours by administration of the test drug and antigen challenge. The allergic response is measured by use of Evans' blue dye and is evaluated by the spot diameter at the injection side. Details of the test are provided below.
A substituted ovalbumin antigen is used both as immunogen and challenging antigen. The antigen is prepared as follows: 500 mg. ovalbumin (EA) and 500 mg. K2 CO3 are dissolved in 25 ml. distilled H2 O and stirred at room temperature for 5 minutes. Five hundred (500) mg. dinitrobenzene sulfonic acid, Na^+ salt, (previously recrystallized from hot absolute ethanol) is then added slowly with continued stirring. The reaction mixture is then immediately placed in the dark and allowed to proceed for 2 hours with constant stirring. After 2 hours the mixture is placed in suitable dialysis tubing and dialyzed against 5 changes (4 liters each) of distilled H2 O at 5° C. After dialysis the product is lyophilized and stored at room temperature in a brown or amber container. The antigen obtained will appear as a light yellow, amorphous solid which is very soluble in water or saline. It is designated as DNP denatured ovalbumin (DNP-d EA).
Adult, male Sprague-Dawley rats are used as a source or reagin-rich antisera for the PCA model. Immunization is by a combination of DNP-d EA on Al(OH)3 gel and B. pertussis vaccine. Preparation of the DNP-d EA - gel immunogen is as follows: Dissolve the DNP-d EA in TBS so as to give a concentration of 10 mg./ml. Slowly add 1 ml. of this solution to 10 ml. Al(OH)3 gel (10 mg. solids/ml.) with constant stirring at room temperature. Stir the mixture an additional 30 minutes to insure a uniform adsorption of antigen on gel.
The resulting preparation is then used in combination with phase I B. pertussis vaccine to immunize male S/D rats as follows: For each rat administer 0.1 ml. DNP-d EA - gel suspension intramuscularly in each hind leg (200 μg DNP-d EA and 2 mg. gel total dose). Follow these injections by the intraperitoneal administration of 1.0 ml. B. pertussis vaccine (10-20 × 10^9 organisms). The use of light ether anesthesia during this procedure is recommended to insure proper intramuscular and intraperitoneal injections. Nine days following immunization (but no longer than 10) the animals are exsanguinated by cardiac puncture or abdominal aorta cannulation under ether or pentobarbital anesthesia. The collected whole blood is allowed to clot, the serum separated by centrifugation and the individual serum samples stored frozen until assayed for IgE content.
Individual serum samples should be screened for reaginic antibody concentration before being pooled with other sera, as not all rats respond to immunization procedures with reagin production. A 1:50 saline dilution of serum from each immunized rat is used for this purpose. Intradermal injections of 0.05 ml. of the diluted sera are made in the shaven backs of two small female recipient rats, 100-120 gms. Several serum samples can be tested simultaneously in recipient animals. After a 24 to 48 hour latent period antigen challenge is accomplished by intravenous administration to each rat of 1 mg. DNP-d EA in 0.5 ml. 0.5% Evans' blue dye in saline. Sera which show positive PCA reactions at the 1:50 dilution, as measured 20 to 30 minutes post-challenge are pooled, dispensed in small aliquots and stored at -70° C. or lower until used. Negative sera may be discarded.
The IgE titer of the antisera pool should then be determined. […]

[3] = cited from earlier work
[4] = iv, 1-5 minutes prior to antigen challenge (DSCG: at the time of antigen challenge), read-out: Rat PCA Test ID50, i.v. (dose of compound that inhibits 50% of the response)
[5] = po, 10 minutes prior to antigen challenge, Table II and its footnote, read-out: Rat PCA Test ID50, p.o. (dose of compound that inhibits 50% of the response)
[6] = po, 10 minutes prior to antigen challenge, Table 1, read-out: Rat PCA Test ID50, p.o. (dose of compound that inhibits 50% of the response)

O=C(O)c1cc(=O)c2c(OCC(O)COc3cccc4oc(C(=O)O)cc(=O)c34)cccc2o1 [DSCG, disodium cromoglycate, reference compound]
inhibition of release of mediators, e.g. histamine and SRS-A [1]: inhibits the release of mediators
ED50 [2, 4]: 0.6 mg/kg
ED50 [2, 5]: > 30 mg/kg
ED50 ([2]; po, DSCG dosed 30 minutes prior to challenge, Table 1, read-out: Rat PCA Test ID50, p.o. (DSCG)): > 30 mg/kg
oral absorption [3]: not orally absorbed

COc1ccc2c(c1)-c1ncc(C(=O)O)c(=O)n1CC2 [Example 11B, 6,7-dihydro-10-methoxy-4-oxo-4H-pyrimido[2,1-a]isoquinoline-3-carboxylicAcid]
ED50 [2, 6]: ~0.48 mg/kg

COc1cc2c(cc1OC)-c1ncc(C(=O)O)c(=O)n1CC2 [Example 11D, 6,7-dihydro-9,10-dimethoxy-4-oxo-4H-pyrimido[2,1-a]isoquinoline-3-carboxylic Acid]
ED50 [2, 6]: ~0.31 mg/kg

CCOC(=O)c1cnc2c3ccc(OC)cc3ccn2c1=O [Example 12, Ethyl 9-Methoxy-4-oxo-4H-pyrimido[2,1-a]isoquinoline-3-carboxylate]
ED50 [2, 5]: ~31 mg/kg

CCOC(=O)c1cnc2c3cc(OC)ccc3ccn2c1=O [Example 13A, ethyl 10-Methoxy-4-oxo-4H-pyrimido[2,1-a]isoquinoline-3-carboxylate]
ED50 [2, 5]: ~0.9 mg/kg

CCOC(=O)c1cnc2c3ccccc3c(CC)cn2c1=O [Example 13B, ethyl 7-Ethyl-4-oxo-4H-pyrimido[2,1-a]isoquinoline-3-carboxylate]
ED50 [2, 5]: ~5 mg/kg

CCOC(=O)c1cnc2c3cc(OC)c(OC)cc3ccn2c1=O [Example 13C, ethyl 9,10-Dimethoxy-4-oxo-4H-pyrimido[2,1-a]isoquinoline-3-carboxylate]
ED50 [2, 5]: ~2.63 mg/kg

C=CCc1cn2c(=O)c(C(=O)OCC)cnc2c2cc(OC)ccc12 [Example 14, Ethyl 7-Allyl-10-methoxy-4-oxo-4H-pyrimido[2,1-a]isoquinoline-3-carboxylate]
ED50 [2, 5]: > 5 mg/kg

CCCc1cn2c(=O)c(C(=O)OCC)cnc2c2cc(OC)ccc12 [Example 15, Ethyl 10-Methoxy-4-oxo-7-propyl-4H-pyrimido[2,1-a]isoquinoline-3-carboxylate]
ED50 [2, 5]: ~16 mg/kg

COc1ccc2ccn3c(=O)c(C(=O)O)cnc3c2c1 [Example 16, 10-Methoxy-4-oxo-4H-pyrimido[2,1-a]isoquinoline-3-carboxylic acid]
ED50 [2, 4]: ~1 mg/kg

CCc1cn2c(=O)c(C(=O)O)cnc2c2ccccc12 [Example 17A, 7-ethyl-4-oxo-4H-pyrimido[2,1-a]isoquinoline-3-carboxylic Acid]
ED50 [2, 4]: ~0.048 mg/kg

COc1cc2ccn3c(=O)c(C(=O)O)cnc3c2cc1OC [Example 17B, 9,10-dimethoxy-4-oxo-4H-pyrimido[2,1-a]isoquinoline-3-carboxylic Acid]
ED50 [2, 5]: ~0.01 mg/kg

C=CCc1cn2c(=O)c(C(=O)O)cnc2c2cc(OC)ccc12 [Example 17C, 7-allyl-10-methoxy-4-oxo-4H-pyrimido[2,1-a]isoquinoline-3-carboxylic Acid]
ED50 [2, 4]: ~0.53 mg/kg

CCCc1cn2c(=O)c(C(=O)O)cnc2c2cc(OC)ccc12 [Example 17D, 10-methoxy-4-oxo-7-propyl-4H-pyrimido[2,1-a]isoquinoline-3-carboxylic Acid]
ED50 [2, 4]: ~0.071 mg/kg

COc1ccc2c(ccn3c(=O)c(C(=O)O)cnc23)c1 [Example 18, 9-Methoxy-4-oxo-4H-pyrimido[2,1-a]isoquinoline-3-carboxylic Acid]
ED50 [2, 4]: ~1.5 mg/kg

O=C(O)c1cnc2n(c1=O)CCc1ccc(O)cc1-2 [Example 19, 6,7-Dihydro-10-hydroxy-4-oxo-4H-pyrimido[2,1-a]isoquinoline-3-carboxylic Acid]
ED50 [2, 6]: ~1.2 mg/kg

O=C(O)c1cnc2n(c1=O)CCc1cc(O)c(O)cc1-2 [Example 20, 6,7-Dihydro-9,10-dihydroxy-4-oxo-4H-pyrimido[2,1-a]isoquinoline-3-carboxylic Acid]
ED50 [2, 6]: ~0.077 mg/kg

CC(C)C(=O)Oc1ccc2c(c1)-c1ncc(C(=O)O)c(=O)n1CC2 [Example 21, 10-Isobutyryloxy-6,7-dihydro-4-oxo-4H-pyrimido[2,1-a]isoquinoline-3-carboxylic Acid]
ED50 [2, 6]: ~0.5 mg/kg

COc1cc2c(cc1OC)-c1ncc(-c3nnn[nH]3)c(=O)n1CC2 [Example 24, 6,7-Dihydro-9,10-dimethoxy-3-(1H-tetrazol-5-yl)-4H-pyrimido[2,1-a]isoquinol-4-one]
ED50 [2, 6]: ~0.03 mg/kg

CCc1cn2c(=O)c(-c3nnn[nH]3)cnc2c2ccccc12 [Example 25, 7-Ethyl-3-(1H-tetrazol-5-yl)-4H-pyrimido[2,1-a]isoquinol-4-one]
ED50 [2, 4]: 0.009 mg/kg
ED50 [2, 5]: 0.04 mg/kg
